Where “and” joins values, the source holds several entries; their conditions need not be identical. Equal entries are not always repeated. Where two headings read alike, the source gives them in different places.
Assays:
[1] = biological target: T1, His-tagged BCL-xL (Homo sapiens, UniProt Q07817); assay: AlphaScreen competitive binary binding, BCL-xL (biotin-BAD peptide); settings: BCL-xL, second value (line without label below Rep-1, apparently Rep-2)
T1 construct: purchased Sigma-Aldrich SRP0187
Method: (§1) The reagents were diluted in a buffer containing 250 mM HEPES pH 7.5, 1 M NaCl, 1% BSA, and 0.05% Tween-80. His-tagged BCL-xL (0.5 nM, Cat. No. SRP0187, Sigma-Aldrich) or BCL-2 (1 nM, Cat. No. SRP0186, Sigma-Aldrich) were incubated with serial diluted 753a or 753b and 2 nM biotin-tagged BAD (biotin-[…] amino-terminal, AnaSpec, for BCL-xL) or 10 nM BIM peptides (biotin-[…] N-terminal, AnaSpec, for BCL-2) to a final volume of 40 µl in a 96-well PCR plate. […] After incubation for 2 h, 5 µl 6× His-acceptor beads (Cat. No. AL128M, PerkinElmer) were added to each well at 20 µg/ml final concentration and incubated for 1 h. Then 5 µl streptavidin-donor beads were added (Cat. No. 6760002, PerkinElmer) to each well at 20 µg/ml final concentration and incubated for 45 min. At the end of the incubation period, 17 µl of each sample was transferred in adjacent wells of 384-well proxy plate (Cat. No. 6008280, PerkinElmer). The plate was scanned using the Alpha program on Biotek’s Synergy Neo2 multimode plate reader. The inhibition constant (Ki) was calculated using the non-linear regression, one site, competitive binding, Fit Ki function on GraphPad Prism 9 software, based on experimentally determined dissociation constant (Kd) for each protein–peptide pair.

[2] = system: 293T cells; assay: Viability (MTS) of 293T cells; format: cell-based, human; settings: for 293T cell viability, MTS absorbance 490 as percent of control, mean of three wells, left block of Plate 29: mean of 3 wells, Plate 29 normalised with blank 0.332667 and control 0.923167 of Plate 30; for 293T cell viability, MTS absorbance 490 as percent of untreated control, single replicate well: normalised to own plate
Method: Suspension cells were treated 30 min after seeding, whereas adherent cells were allowed to adhere overnight and were then treated. Compound treatments were prepared in complete cell culture medium and 100 µl of 2× treatment-containing medium were added to each well. Complete cell culture medium without treatment was added in control wells, and wells containing medium without cells served as background. The outer wells of the 96-well plate were not used for treatment and were filled with 250 µl of PBS to reduce evaporation of medium from inner wells. Each compound and/or combination was tested at nine different concentrations with three replicates. The cell viability was measured after 72 h by tetrazolium-based MTS assay. MTS reagent (2 mg ml^–1 stock; cat. no. G1111, Promega) was freshly supplemented with phenazine methosulfate (PMS, 0.92 mg ml^–1 stock, cat. no. P9625, Sigma-Aldrich) in 20:1 ratio, and 20 µl of this mixture was added to each control and treatment well. The cells were incubated for 4 h at 37 °C and 5% CO2, and then the absorbance was recorded at 490 nm using Biotek’s Synergy Neo2 multimode plate reader (Biotek). The average absorbance value of background wells was subtracted from absorbance value of each control and treatment well, and percent cell viability ((At/A0) × 100)) was determined in each treatment well, where At is the absorbance value of the treatment well and A0 is the average absorbance value of control wells after background subtraction. The data were expressed as average percentage cell viability and fitted in non-linear regression curves using GraphPad Prism 7 (GraphPad Software, La Jolla, CA, USA).

[3] = biological target: T2, His-tagged BCL-2 (Homo sapiens, UniProt P10415); assay: AlphaScreen competitive binary binding, BCL-2 (biotin-BIM peptide); settings: for Alpha signal normalised to Maximum/Minimum (inhibition): in % (unit assumed)
T2 construct: purchased Sigma-Aldrich SRP0186
Method: as §1

T2 sequence (P10415 whole entry): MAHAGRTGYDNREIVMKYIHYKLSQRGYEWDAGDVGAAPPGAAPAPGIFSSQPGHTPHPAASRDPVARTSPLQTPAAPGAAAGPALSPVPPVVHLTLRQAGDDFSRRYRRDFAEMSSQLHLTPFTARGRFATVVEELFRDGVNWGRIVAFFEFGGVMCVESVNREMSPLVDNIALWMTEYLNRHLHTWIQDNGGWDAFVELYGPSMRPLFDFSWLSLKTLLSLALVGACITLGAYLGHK
T1 sequence (Q07817 whole entry): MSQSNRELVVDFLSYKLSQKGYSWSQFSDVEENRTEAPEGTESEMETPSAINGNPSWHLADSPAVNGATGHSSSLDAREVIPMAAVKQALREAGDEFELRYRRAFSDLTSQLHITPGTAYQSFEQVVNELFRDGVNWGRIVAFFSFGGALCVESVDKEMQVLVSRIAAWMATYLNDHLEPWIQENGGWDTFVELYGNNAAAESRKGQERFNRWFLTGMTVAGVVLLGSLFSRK

Ki [1]: 2.53 nM
Alpha signal normalised to Maximum/Minimum (inhibition) ([3]; BCL-2 Rep-1, 0.000305176 uM, 0.000305176 µM): 11.9513
inhibition at 0.000305176 µM ([3]; BCL-2 Rep-1, 0.000305176 uM, read-out: Alpha signal normalised to Maximum/Minimum (inhibition)): 15.4%
Alpha signal normalised to Maximum/Minimum (inhibition) ([3]; BCL-2 Rep-1, 0.00488281 uM, 0.00488281 µM): 42.8592
inhibition at 0.00488281 µM ([3]; BCL-2 Rep-1, 0.00488281 uM, read-out: Alpha signal normalised to Maximum/Minimum (inhibition)): 43%
Alpha signal normalised to Maximum/Minimum (inhibition) ([3]; BCL-2 Rep-1, 0.0195312 uM, 0.0195312 µM): 72.1054
inhibition at 0.0195312 µM ([3]; BCL-2 Rep-1, 0.0195312 uM, read-out: Alpha signal normalised to Maximum/Minimum (inhibition)): 69.3%
Alpha signal normalised to Maximum/Minimum (inhibition) ([3]; BCL-2 Rep-1, 0.078125 uM, 0.078125 µM): 96.9363
inhibition at 0.078125 µM ([3]; BCL-2 Rep-1, 0.078125 uM, read-out: Alpha signal normalised to Maximum/Minimum (inhibition)): 96.6%
Alpha signal normalised to Maximum/Minimum (inhibition) ([3]; BCL-2 Rep-1, 0.3125 uM, 0.3125 µM): 99.419
inhibition at 0.3125 µM ([3]; BCL-2 Rep-1, 0.3125 uM, read-out: Alpha signal normalised to Maximum/Minimum (inhibition)): 100%
Alpha signal normalised to Maximum/Minimum (inhibition) ([3]; BCL-2 Rep-1, 1.25 uM, 1.25 µM): 99.6178
inhibition at 1.25 µM ([3]; BCL-2 Rep-1, 1.25 uM, read-out: Alpha signal normalised to Maximum/Minimum (inhibition)): 99.6%
Alpha signal normalised to Maximum/Minimum (inhibition) ([3]; BCL-2 Rep-1, 5 uM, 5 µM): 99.391
inhibition at 5 µM ([3]; BCL-2 Rep-1, 5 uM, read-out: Alpha signal normalised to Maximum/Minimum (inhibition)): 100%
Alpha signal (raw counts) ([3]; BCL-2 Rep-2, 0.00488281 uM): 457290 and 444842
Alpha signal normalised to Maximum/Minimum (inhibition) ([3]; BCL-2 Rep-2, 0.0195312 uM, 0.0195312 µM): 73.927
inhibition at 0.0195312 µM ([3]; BCL-2 Rep-2, 0.0195312 uM, read-out: Alpha signal normalised to Maximum/Minimum (inhibition)): 72.6%
Alpha signal normalised to Maximum/Minimum (inhibition) ([3]; BCL-2 Rep-2, 0.078125 uM, 0.078125 µM): 98.4863
inhibition at 0.078125 µM ([3]; BCL-2 Rep-2, 0.078125 uM, read-out: Alpha signal normalised to Maximum/Minimum (inhibition)): 98.1%
Alpha signal normalised to Maximum/Minimum (inhibition) ([3]; BCL-2 Rep-2, 0.3125 uM, 0.3125 µM): 98.9063
inhibition at 0.3125 µM ([3]; BCL-2 Rep-2, 0.3125 uM, read-out: Alpha signal normalised to Maximum/Minimum (inhibition)): 98.5%
Alpha signal normalised to Maximum/Minimum (inhibition) ([3]; BCL-2 Rep-2, 1.25 uM, 1.25 µM): 100.524
inhibition at 1.25 µM ([3]; BCL-2 Rep-2, 1.25 uM, read-out: Alpha signal normalised to Maximum/Minimum (inhibition)): 101%
Alpha signal normalised to Maximum/Minimum (inhibition) ([3]; BCL-2 Rep-2, 5 uM, 5 µM): 100.141
inhibition at 5 µM ([3]; BCL-2 Rep-2, 5 uM, read-out: Alpha signal normalised to Maximum/Minimum (inhibition)): 99.9%
Alpha signal (raw counts) ([3]; BCL-2 Rep-2, plate row B, 5 uM): 15606 and 13933
Alpha signal (raw counts) ([3]; BCL-2 Rep-2, plate row C, 1.25 uM): 9913 and 10759
Alpha signal (raw counts) ([3]; BCL-2 Rep-2, plate row D, 0.3125 uM): 27814 and 24179
Alpha signal (raw counts) ([3]; BCL-2 Rep-2, plate row E, 0.078125 uM): 30701 and 27663
Alpha signal (raw counts) ([3]; BCL-2 Rep-2, plate row F, 0.0195312 uM): 242422 and 231401
Alpha signal (raw counts) ([3]; BCL-2 Rep-2, plate row H, 0.0012207 uM): 765240 and 763074
Alpha signal (raw counts) ([3]; BCL-2 Rep-2, plate row I, 0.000305176 uM): 762866 and 759346
Alpha signal (raw counts) ([3]; BCL-2 Rep-2, plate row J, 7.62939e-5 uM): 726537 and 792609
Alpha signal (raw counts) ([3]; BCL-2 Rep-2, plate row K, 1.90735e-5 uM): 756626 and 814053
Structure (SMILES): Cc1ncsc1-c1ccc([C@H](C)NC(=O)[C@@H]2C[C@@H](O)CN2C(=O)[C@@H](NC(=O)CCCCCC(=O)N2CCN(CC[C@H](CSc3ccccc3)Nc3ccc(S(=O)(=O)NC(=O)c4ccc(N5CCN(CC6=C(c7ccc(Cl)cc7)CCC(C)(C)C6)CC5)cc4)cc3S(=O)(=O)C(F)(F)F)CC2)C(C)(C)C)cc1 [DT2216]
293T cell viability, MTS absorbance 490 as percent of control, mean of three wells, left block of Plate 29 ([2]; 0.00137174 uM): 100.343
293T cell viability, MTS absorbance 490 as percent of control, single replicate well, left block of Plate 29 ([2]; 0.00137174 uM, Plate 29 normalised with blank 0.332667 and control 0.923167 of Plate 30, 0.00137174 µM): 99.4764 and 95.6851
293T cell viability, MTS absorbance 490 as percent of untreated control, single replicate well ([2]; 0.00137174 uM): 104.404 and 98.1429 and 94.4287
293T cell viability, MTS absorbance 490 as percent of control, mean of three wells, left block of Plate 29 ([2]; 0.00411523 uM): 98.6099
293T cell viability, MTS absorbance 490 as percent of control, single replicate well, left block of Plate 29 ([2]; 0.00411523 uM, Plate 29 normalised with blank 0.332667 and control 0.923167 of Plate 30, 0.00411523 µM): 96.0101 and 96.1184
293T cell viability, MTS absorbance 490 as percent of untreated control, single replicate well ([2]; 0.00411523 uM): 102.282 and 94.7471 and 94.8532
293T cell viability, MTS absorbance 490 as percent of control, mean of three wells, left block of Plate 29 ([2]; 0.037037 uM): 101.101
293T cell viability, MTS absorbance 490 as percent of control, single replicate well, left block of Plate 29 ([2]; 0.037037 uM, Plate 29 normalised with blank 0.332667 and control 0.923167 of Plate 30, 0.037037 µM): 93.0854 and 104.134
293T cell viability, MTS absorbance 490 as percent of untreated control, single replicate well ([2]; 0.037037 uM): 91.8819 and 102.706
293T cell viability, MTS absorbance 490 as percent of control, mean of three wells, left block of Plate 29 ([2]; 0.111111 uM): 100.235
293T cell viability, MTS absorbance 490 as percent of control, single replicate well, left block of Plate 29 ([2]; 0.111111 uM, Plate 29 normalised with blank 0.332667 and control 0.923167 of Plate 30, 0.111111 µM): 95.1435 and 95.2519
293T cell viability, MTS absorbance 490 as percent of untreated control, single replicate well ([2]; 0.111111 uM): 93.8981 and 94.0042
293T cell viability, MTS absorbance 490 as percent of control, mean of three wells, left block of Plate 29 ([2]; 0.333333 uM): 99.5125
293T cell viability, MTS absorbance 490 as percent of control, single replicate well, left block of Plate 29 ([2]; 0.333333 uM, Plate 29 normalised with blank 0.332667 and control 0.923167 of Plate 30, 0.333333 µM): 112.042 and 98.7182 and 87.7776
293T cell viability, MTS absorbance 490 as percent of untreated control, single replicate well ([2]; 0.333333 uM): 110.453 and 97.4001 and 86.682
293T cell viability, MTS absorbance 490 as percent of control, mean of three wells, left block of Plate 29 ([2]; 1 uM): 99.007
293T cell viability, MTS absorbance 490 as percent of control, single replicate well, left block of Plate 29 ([2]; 1 uM, Plate 29 normalised with blank 0.332667 and control 0.923167 of Plate 30, 1 µM): 110.742 and 102.834 and 83.4447
293T cell viability, MTS absorbance 490 as percent of untreated control, single replicate well ([2]; 1 uM): 109.179 and 101.433 and 82.4372
293T cell viability, MTS absorbance 490 as percent of control, mean of three wells, left block of Plate 29 ([2]; 3 uM): 87.4526
293T cell viability, MTS absorbance 490 as percent of control, single replicate well, left block of Plate 29 ([2]; 3 uM, Plate 29 normalised with blank 0.332667 and control 0.923167 of Plate 30, 3 µM): 93.7353 and 78.0285
293T cell viability, MTS absorbance 490 as percent of untreated control, single replicate well ([2]; 3 uM): 92.5186 and 77.1312

— article PMC8617031, “Development of a BCL-xL and BCL-2 dual degrader with improved anti-leukemic activity,” (Nature Communications, 2021)
